According to BindingDB's records for doi:10.1016/j.bmcl.2018.08.004 (Beijing Institute of Pharmacology and Toxicology, 2018):
Bridge positions count the residues as written; N and C are the ends. Square brackets hold non-standard residues; d marks the D form. Peptide text beside a SMILES is read from it. Phe(4-Br) = N[C@@H](Cc1ccc(Br)cc1)C(=O)O; Phe(4-Cl) = N[C@@H](Cc1ccc(Cl)cc1)C(=O)O; 1Nal = N[C@@H](Cc1cccc2ccccc12)C(=O)O; 2Nal = N[C@@H](Cc1ccc2ccccc2c1)C(=O)O; Phe(2-F) = N[C@@H](Cc1ccccc1F)C(=O)O; Cit = NC(=O)NCCC[C@H](N)C(=O)O; NMeA = CN[C@@H](C)C(=O)O; Sar = CNCC(=O)O

Experiment: Agonist activity at EPO receptor in human TF1 cells assessed as induction of cell proliferation after 48 hrs by MTT assay

| SMILES | EC50 [nM] |
| --- | --- |
| CC[C@H](C)[C@@H]1NC(=O)[C@@H]2CCCN2C(=O)CNC(=O)[C@H](CCSC)NC(=O)[C@H](Cc2cnc[nH]2)NC(=O)[C@@H](NC(=O)[C@H](C)NC(=O)[C@H](Cc2ccc(O)cc2)NC(=O)[C@H](CC(C)C)NC(=O)CNC(=O)CNC(C)=O)CSSC[C@@H](C(=O)N[C@@H](CCC(N)=O)C(=O)N2CCC[C@H]2C(=O)N[C@@H](CC(C)C)C(=O)N[C@@H](CCCNC(=N)N)C(=O)N(C)CC(=O)N[C@@H](CCCCN)C(N)=O)NC(=O)[C@H](C(C)C)NC(=O)[C@H](Cc2cccc3ccccc23)NC(=O)[C@H]([C@@H](C)O)NC1=O | 11 |
| CC[C@H](C)[C@@H]1NC(=O)[C@@H]2CCCN2C(=O)CNC(=O)[C@H](CCSC)NC(=O)[C@H](Cc2cnc[nH]2)NC(=O)[C@@H](NC(=O)[C@H](C)NC(=O)[C@H](Cc2ccc(O)cc2)NC(=O)[C@H](CC(C)C)NC(=O)CNC(=O)CNC(C)=O)CSSC[C@@H](C(=O)N[C@@H](CCC(N)=O)C(=O)N2CCC[C@H]2C(=O)N[C@@H](CC(C)C)C(=O)N[C@@H](CCCNC(N)=O)C(=O)N(C)CC(=O)N[C@@H](CCCCN)C(N)=O)NC(=O)[C@H](C(C)C)NC(=O)[C@H](Cc2cccc3ccccc23)NC(=O)[C@H]([C@@H](C)O)NC1=O (Ac-GGLYACHMGPIT[1Nal]VCQPL[Cit][Sar]K-NH2; disulfide 6-15) | 31 |
| CC[C@H](C)[C@@H]1NC(=O)[C@@H]2CCCN2C(=O)CNC(=O)[C@H](CCSC)NC(=O)[C@H](Cc2cnc[nH]2)NC(=O)[C@@H](NC(=O)[C@H](C)NC(=O)[C@H](Cc2ccc(O)cc2)NC(=O)[C@H](CC(C)C)NC(=O)CNC(=O)CNC(C)=O)CSSC[C@@H](C(=O)N[C@@H](CCC(N)=O)C(=O)N(C)[C@@H](C)C(=O)N[C@@H](CC(C)C)C(=O)N[C@@H](CCCNC(=N)N)C(=O)N(C)CC(=O)N[C@@H](CCCCN)C(N)=O)NC(=O)[C@H](C(C)C)NC(=O)[C@H](Cc2cccc3ccccc23)NC(=O)[C@H]([C@@H](C)O)NC1=O (Ac-GGLYACHMGPIT[1Nal]VCQ[NMeA]LR[Sar]K-NH2; disulfide 6-15) | 12 |
| CC[C@H](C)[C@@H]1NC(=O)[C@@H]2CCCN2C(=O)CNC(=O)[C@H](CCSC)NC(=O)[C@H](Cc2cnc[nH]2)NC(=O)[C@@H](NC(=O)[C@H](C)NC(=O)[C@H](Cc2ccc(O)cc2)NC(=O)[C@H](CC(C)C)NC(=O)CNC(=O)CNC(C)=O)CSSC[C@@H](C(=O)N[C@@H](CCC(N)=O)C(=O)N(C)CC(=O)N[C@@H](CC(C)C)C(=O)N[C@@H](CCCNC(=N)N)C(=O)N(C)CC(=O)N[C@@H](CCCCN)C(N)=O)NC(=O)[C@H](C(C)C)NC(=O)[C@H](Cc2cccc3ccccc23)NC(=O)[C@H]([C@@H](C)O)NC1=O (Ac-GGLYACHMGPIT[1Nal]VCQ[Sar]LR[Sar]K-NH2; disulfide 6-15) | 42 |
| CC[C@H](C)[C@@H]1NC(=O)[C@@H]2CCCN2C(=O)CNC(=O)[C@H](CCSC)NC(=O)[C@H](Cc2cnc[nH]2)NC(=O)[C@@H](NC(=O)[C@H](C)NC(=O)[C@H](Cc2ccc(O)cc2)NC(=O)[C@H](CC(C)C)NC(=O)CNC(=O)CNC(C)=O)CSSC[C@@H](C(=O)N[C@@H](CCC(N)=O)C(=O)N2CCC[C@H]2C(=O)N[C@@H](CC(C)C)C(=O)N[C@@H](CCCNC(=N)N)C(=O)N(C)CC(=O)N[C@@H](CCCCN)C(N)=O)NC(=O)[C@H](C(C)C)NC(=O)[C@H](Cc2ccc3ccccc3c2)NC(=O)[C@H]([C@@H](C)O)NC1=O (Ac-GGLYACHMGPIT[2Nal]VCQPLR[Sar]K-NH2; disulfide 6-15) | 540 |
| CC[C@H](C)[C@@H]1NC(=O)[C@@H]2CCCN2C(=O)CNC(=O)[C@H](CCSC)NC(=O)[C@H](Cc2cnc[nH]2)NC(=O)[C@@H](NC(=O)[C@H](C)NC(=O)[C@H](Cc2ccc(O)cc2)NC(=O)[C@H](CC(C)C)NC(=O)CNC(=O)CNC(C)=O)CSSC[C@@H](C(=O)N[C@@H](CCC(N)=O)C(=O)N2CCC[C@H]2C(=O)N[C@@H](CC(C)C)C(=O)N[C@@H](CCCNC(=N)N)C(=O)N(C)CC(=O)N[C@@H](CCCCN)C(N)=O)NC(=O)[C@H](C(C)C)NC(=O)[C@H](Cc2ccccc2F)NC(=O)[C@H]([C@@H](C)O)NC1=O (Ac-GGLYACHMGPIT[Phe(2-F)]VCQPLR[Sar]K-NH2; disulfide 6-15) | 540 |
| CC[C@H](C)[C@@H]1NC(=O)[C@@H]2CCCN2C(=O)CNC(=O)[C@H](CCSC)NC(=O)[C@H](Cc2cnc[nH]2)NC(=O)[C@@H](NC(=O)[C@H](C)NC(=O)[C@H](Cc2ccc(O)cc2)NC(=O)[C@H](CC(C)C)NC(=O)CNC(=O)CNC(C)=O)CSSC[C@@H](C(=O)N[C@@H](CCC(N)=O)C(=O)N2CCC[C@H]2C(=O)N[C@@H](CC(C)C)C(=O)N[C@@H](CCCNC(=N)N)C(=O)N(C)CC(=O)N[C@@H](CCCCN)C(N)=O)NC(=O)[C@H](C(C)C)NC(=O)[C@H](Cc2ccc(Br)cc2)NC(=O)[C@H]([C@@H](C)O)NC1=O (Ac-GGLYACHMGPIT[Phe(4-Br)]VCQPLR[Sar]K-NH2; disulfide 6-15) | 540 |
| CC[C@H](C)[C@@H]1NC(=O)[C@@H]2CCCN2C(=O)CNC(=O)[C@H](CCSC)NC(=O)[C@H](Cc2cnc[nH]2)NC(=O)[C@@H](NC(=O)[C@H](C)NC(=O)[C@H](Cc2ccc(O)cc2)NC(=O)[C@H](CC(C)C)NC(=O)CNC(=O)CNC(C)=O)CSSC[C@@H](C(=O)N[C@@H](CCC(N)=O)C(=O)N2CCC[C@H]2C(=O)N[C@@H](CC(C)C)C(=O)N[C@@H](CCCNC(=N)N)C(=O)N(C)CC(=O)N[C@@H](CCCCN)C(N)=O)NC(=O)[C@H](C(C)C)NC(=O)[C@H](Cc2ccc(Cl)cc2)NC(=O)[C@H]([C@@H](C)O)NC1=O (Ac-GGLYACHMGPIT[Phe(4-Cl)]VCQPLR[Sar]K-NH2; disulfide 6-15) | 240 |
| CC[C@H](C)[C@@H]1NC(=O)[C@H](C)N(C)C(=O)CNC(=O)[C@H](CCSC)NC(=O)[C@H](Cc2cnc[nH]2)NC(=O)[C@@H](NC(=O)[C@H](C)NC(=O)[C@H](Cc2ccc(O)cc2)NC(=O)[C@H](CC(C)C)NC(=O)CNC(=O)CNC(C)=O)CSSC[C@@H](C(=O)N[C@@H](CCC(N)=O)C(=O)N2CCC[C@H]2C(=O)N[C@@H](CC(C)C)C(=O)N[C@@H](CCCNC(=N)N)C(=O)N(C)CC(=O)N[C@@H](CCCCN)C(N)=O)NC(=O)[C@H](C(C)C)NC(=O)[C@H](Cc2cccc3ccccc23)NC(=O)[C@H]([C@@H](C)O)NC1=O (Ac-GGLYACHMG[NMeA]IT[1Nal]VCQPLR[Sar]K-NH2; disulfide 6-15) | 26 |
| CC[C@H](C)[C@@H]1NC(=O)CN(C)C(=O)CNC(=O)[C@H](CCSC)NC(=O)[C@H](Cc2cnc[nH]2)NC(=O)[C@@H](NC(=O)[C@H](C)NC(=O)[C@H](Cc2ccc(O)cc2)NC(=O)[C@H](CC(C)C)NC(=O)CNC(=O)CNC(C)=O)CSSC[C@@H](C(=O)N[C@@H](CCC(N)=O)C(=O)N2CCC[C@H]2C(=O)N[C@@H](CC(C)C)C(=O)N[C@@H](CCCNC(=N)N)C(=O)N(C)CC(=O)N[C@@H](CCCCN)C(N)=O)NC(=O)[C@H](C(C)C)NC(=O)[C@H](Cc2cccc3ccccc23)NC(=O)[C@H]([C@@H](C)O)NC1=O (Ac-GGLYACHMG[Sar]IT[1Nal]VCQPLR[Sar]K-NH2; disulfide 6-15) | 31 |
